PubChem BioAssay (NCI)
“And” between values parts separate entries of the source, which are not always exact repeats. Equal values may be shown once.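 Five concentrations, 48 hours, 96-well plates. GI50 is the concentration that inhibits growth by half. TGI: total growth inhibition.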

What was measured:
Test in all cases: NCI-60 cell line screen, 48 h
[1] = tested on: SK-MEL-28 melanoma
[2] = tested on: KM12 colon
[3] = tested on: NCI-H460 lung
[4] = tested on: NCI-H522 lung
[5] = tested on: SF-268 CNS
[6] = tested on: SW-620 colon
[7] = tested on: U251 CNS
[8] = tested on: RXF 393 renal
[9] = tested on: HCC-2998 colon
[10] = tested on: SK-MEL-2 melanoma

SMILES	GI50 [1]	TGI [1]	GI50 [2]	TGI [2]	GI50 [3]	TGI [3]	GI50 [4]	TGI [4]	GI50 [5]	TGI [5]	GI50 [6]	TGI [6]	GI50 [7]	TGI [7]	GI50 [8]	TGI [8]	GI50 [9]	TGI [9]	GI50 [10]	TGI [10]
O=C1/C(=C/c2ccccc2)CCC/C1=C\c1ccccc1	6.84 µM and 18.9 µM	12.3 µM and 32.7 µM and 38.2 µM	3.54 µM and 2.11 µM	7.81 µM and 5.54 µM and 4.26 µM	6.09 µM and 19.8 µM	12 µM and 34 µM and 46.8 µM	6.46 µM and 13.7 µM and 15.7 µM	11.8 µM and 31.8 µM and 35 µM	6.72 µM and 5.81 µM	13.3 µM and 29.5 µM and 20.3 µM	6.37 µM and 3.19 µM	11.8 µM and 6.4 µM and 11.2 µM	3.33 µM	11.5 µM and 14.8 µM and 12.9 µM	7.73 µM and 4.27 µM	13.4 µM and 32.3 µM and 17.8 µM	2.72 µM	25.8 µM and 7.64 µM	6.19 µM and 22.7 µM	13.9 µM and 35.5 µM and 49.9 µM
Cc1cc(-c2nc(-c3ccc(OC(F)(F)F)cc3)no2)nn1Cc1ccnc(N2CCN(C3CC3)CC2)c1	3.6 µM	> 40.2 µM	6.88 µM	> 91.9 µM	4.94 µM	55.3 µM	2.68 µM	58.1 µM	> 42.7 µM	> 100 µM	> 34.5 µM	> 68.7 µM	5.52 µM	> 100 µM	> 27.9 µM	> 75.6 µM	7.05 µM	24.5 µM	> 42.1 µM	> 100 µM
N#Cc1c(NC(=O)CN2CCOCC2)sc2c1CCCC2	> 25 µM	> 25 µM	> 25 µM	> 25 µM	> 25 µM	> 25 µM	> 25 µM	> 25 µM	> 25 µM	> 25 µM	> 25 µM	> 25 µM	> 25 µM	> 25 µM	> 25 µM	> 25 µM	> 25 µM	> 25 µM	> 25 µM	> 25 µM
O=c1c2ccccc2c(=O)c2c1cc(Cl)c1[nH]c3c([nH]c12)c(Cl)cc1c(=O)c2ccccc2c(=O)c13		> 100 µM		> 100 µM		> 100 µM		> 100 µM		> 100 µM		> 100 µM		> 100 µM		> 100 µM		> 100 µM		> 100 µM
C/C(=N/NC(=O)C(N)=O)C(CC(C(=O)Nc1ccccc1C)/C(C)=N\NC(=O)C(N)=O)C(=O)Nc1ccccc1C (centres undefined)		> 100 µM		> 100 µM		> 100 µM		> 100 µM		> 100 µM		> 100 µM		> 100 µM		> 100 µM		> 100 µM		> 100 µM
COc1cc(C2CC(c3cc(C)ccc3C)=NN2c2ccc(S(=O)(=O)NC(=O)NCc3ccccc3)cc2)cc(OC)c1OC (centres undefined)	2.26 µM	5.5 µM	3.44 µM	17.6 µM	2.54 µM	6.48 µM	3.55 µM	21.6 µM	4.9 µM	34.8 µM	3.62 µM	> 100 µM	3.31 µM	17.3 µM	2.9 µM	8.17 µM	2.63 µM	6.47 µM	2.81 µM	6.25 µM
COc1cc([C@@H]2c3cc4c(cc3[C@H](O)[C@H]3COC(=O)[C@H]23)OCO4)cc(OC)c1OC	< 0.01 µM	> 100 µM and 50 µM	< 0.01 µM		< 0.005 µM	> 100 µM and 50 µM and > 7.95 µM	< 0.01 µM	< 0.01 µM	< 0.01 µM	> 63.4 µM and 50 µM and > 39.2 µM	< 0.01 µM	> 100 µM and 50 µM	< 0.005 µM	> 100 µM and 50 µM and > 7.6 µM	< 0.01 µM		< 0.005 µM		< 0.005 µM	
CC[C@H](C)n1cc(C)c2c(C(=O)NCc3c(C)cc(C)[nH]c3=O)cc(-c3ccc(N4CCNCC4)nc3)cc21	14.1 µM and 6.51 µM	27.8 µM and 19.9 µM	11.4 µM and 10.7 µM	24.2 µM and 23.6 µM	12.3 µM and 12.5 µM	24.7 µM and 26 µM	17.6 µM and 14 µM	34.2 µM and 29.5 µM	14.7 µM and 13 µM	29.8 µM and 27.8 µM	10.1 µM and 8.21 µM	21.8 µM and 22.1 µM	10.9 µM and 10.2 µM	23.1 µM and 22.7 µM	9 µM and 7.71 µM	23.7 µM and 23.2 µM	14.7 µM and 9.46 µM	30.2 µM and 23.4 µM	17.5 µM and 15.4 µM	32.9 µM and 29.9 µM
CC[CH2][Sn]([Cl])([Cl])[CH2]CC	11.4 µM	23.7 µM	16 µM	30.9 µM	17.2 µM	34.3 µM	0.354 µM	1.62 µM	9.63 µM	22.5 µM	2.61 µM	11.5 µM	3.9 µM	16.5 µM	6.96 µM	20.6 µM	10.1 µM	22 µM	10.8 µM	25.6 µM
CC1=C([Se]CC(OC(=O)[C@@H](CO)NC(=O)OC(C)(C)C)C(=O)NC(C)(C)C)C(=O)c2ccccc2C1=O (some centres undefined)	2.06 µM	3.55 µM	1.5 µM	2.89 µM	0.456 µM	1.8 µM	1.6 µM	3.14 µM	1.89 µM	3.34 µM	1.77 µM	3.33 µM	0.986 µM	2.56 µM	1.86 µM	3.28 µM	1.82 µM	3.23 µM	2.2 µM	4.57 µM
CC(=O)OC[C@]12CC[C@@H]([C@@H](C)C(N)=O)[C@@H]1[C@H]1CC[C@@H]3[C@@]4(C)CC[C@H](OC(C)=O)C(C)(C)[C@@H]4CC[C@@]3(C)[C@]1(C)CC2	12 µM	27.3 µM	3.86 µM	15.8 µM	13.4 µM	30.9 µM	4.94 µM	20.7 µM	6.95 µM	22.3 µM	7.69 µM	24.2 µM	5.1 µM	20.4 µM	4.28 µM	16.3 µM	10.4 µM	26.1 µM	10.8 µM	27.5 µM
CC(=O)OC1C(CCl)OC(N=[N+]=[N-])C(OC(C)=O)C1OC(C)=O (centres undefined)		> 100 µM		> 100 µM		> 100 µM		> 100 µM		> 100 µM		> 100 µM		> 100 µM		> 100 µM		> 100 µM		> 100 µM
COc1ccc(/C=C/c2cc(N3CCOCC3)c3cc(F)c(F)cc3n2)cc1OC	1.44 µM	11.6 µM	1.24 µM	13.7 µM	0.526 µM	3.72 µM	0.454 µM	2.72 µM	0.775 µM	16.5 µM	0.667 µM	11.6 µM	0.728 µM	10.5 µM	1.36 µM	10.8 µM	0.876 µM	4.21 µM	2.39 µM	11.5 µM
C#COc1cccc(Nc2ncnc3ncc(NC(=O)CCl)cc23)c1	> 59.6 µM	> 62.5 µM	> 28.4 µM	> 62.5 µM		> 62.5 µM	> 17.9 µM	> 29.9 µM	> 22.3 µM	> 62.5 µM		> 62.5 µM	> 13.3 µM	> 34.5 µM	> 62.5 µM	> 62.5 µM	> 62.5 µM	> 62.5 µM	> 57.7 µM	> 62.5 µM
Clc1ccc(-c2nn3ncccc3c2-c2ccnc(Nc3ccccc3)n2)cc1	> 22.2 µM	> 25 µM	9.03 µM	> 25 µM	6.34 µM	> 25 µM	5.99 µM	> 25 µM	11.5 µM	> 25 µM	12 µM	> 25 µM	14.9 µM	> 25 µM	6.56 µM	> 25 µM	10.9 µM	> 25 µM	24.4 µM	> 25 µM
CC[O-].Cc1ccc2cccc([O-])c2n1.Cc1ccc2cccc([O-])c2n1.Cc1ccc2cccc([O-])c2n1.[Ti+4]	> 65.2 µM	> 100 µM	20.9 µM	74.8 µM	20.2 µM	> 100 µM	14 µM	30.4 µM	> 83.5 µM	> 100 µM	29.6 µM	> 61.1 µM	18.3 µM	50.4 µM	30.9 µM	70.9 µM	27.5 µM	> 67.8 µM	22.9 µM	> 57.5 µM
CCCN(CCC)CCCNC(=O)c1cc2c(-c3ccc(OC)c(OC)c3)nn(C)c2s1	16.6 µM	32.1 µM	26 µM	> 100 µM	32.6 µM	> 100 µM	16.6 µM	41.3 µM	31.1 µM	> 100 µM	24.5 µM	82.6 µM	25.3 µM	> 100 µM	10.7 µM	31.1 µM	18.8 µM	37.7 µM	25.2 µM	72.9 µM
N#Cc1cccc(NC(=O)c2oc3ccccc3c2-c2cnn(-c3ccccc3)c2)c1	> 500 µM	> 500 µM	> 500 µM	> 500 µM	> 500 µM	> 500 µM	> 500 µM	> 500 µM	304 µM	> 500 µM	> 500 µM	> 500 µM	256 µM	> 500 µM	185 µM	> 500 µM	> 500 µM	> 500 µM	> 500 µM	> 500 µM
C#CCNC(=O)CC[C@]1(C)[C@H]2CC[C@@H]3[C@@H]([C@@](C)(O)CCC=C(C)C)CC[C@@]3(C)[C@]2(C)CC[C@H]1C(=C)C	26.9 µM	80 µM	38.5 µM	> 100 µM	31.2 µM	> 100 µM	15.2 µM	35.1 µM	22 µM	57.1 µM	29.4 µM	> 100 µM	20.1 µM	49.5 µM	26.2 µM	81.9 µM	45.8 µM	> 100 µM	47.1 µM	> 100 µM
COC(=O)[C@@]1(C)CC[C@]2(C)CC[C@]3(C)C4=CC=C5C(=CC(=O)C(O)=C5C)[C@]4(C)CC[C@@]3(C)[C@@H]2C1	0.244 µM	0.601 µM	0.369 µM	1.49 µM	0.274 µM	0.796 µM	0.18 µM	0.435 µM	0.341 µM	1.23 µM	0.165 µM	0.414 µM	0.173 µM	0.321 µM	0.176 µM	0.33 µM	0.21 µM	0.474 µM	0.24 µM	0.555 µM
O=C(Nc1ccccc1Br)c1cccc([N+](=O)[O-])c1O		59.9 µM		19.3 µM		> 37.9 µM		6.4 µM		> 100 µM		> 100 µM		14.9 µM		6.71 µM		16.6 µM		52.7 µM
C=C1C(=O)O[C@@H]2C[C@@H]1CC[C@@]1(C)O[C@@H]1CC[C@@]1(C)O[C@@H]1CC[C@@]2(C)O	17.4 µM	34.8 µM	26.2 µM	> 100 µM	60.3 µM	> 100 µM	17.5 µM	45.4 µM	40.5 µM	> 100 µM	14.1 µM	42.2 µM	16.1 µM	36.1 µM	42.8 µM	> 100 µM	4.21 µM	21.1 µM	23 µM	75.2 µM
O=C(O)CCCCn1cnc2c(=S)nc[nH]c21		> 100 µM		> 100 µM		> 100 µM		> 100 µM		> 100 µM		> 100 µM		> 100 µM		> 100 µM		> 100 µM		> 100 µM
CCOC(=O)c1c(C)n2c(=O)cc(C)c3c(OC(C)=O)c(OC(C)=O)cc1c32	4.87 µM	22.5 µM	5.54 µM	29.4 µM	4.01 µM	18.9 µM	4.11 µM	15.1 µM	5.26 µM	> 74.1 µM	4.03 µM	19.3 µM	4.76 µM	> 57.7 µM	3.43 µM	15.8 µM	2.45 µM	15.8 µM	4.57 µM	29.8 µM
COC(=O)[C@H](CC(C)C)NC(=O)NC(=O)NC(=O)CI	5.64 µM	19.1 µM	15.8 µM	32.8 µM	18.7 µM	41.5 µM	1.67 µM	3.2 µM	11.3 µM	29.1 µM	1.83 µM	3.53 µM	15.8 µM	29.3 µM	2.46 µM	6.54 µM	11.4 µM	24.2 µM	13.7 µM	27.9 µM
CN1c2ccccc2S(=O)(=O)n2c(COc3ccc(Cl)cc3)nnc21		> 100 µM		> 100 µM		> 100 µM		> 100 µM		> 100 µM		> 100 µM		> 100 µM		> 100 µM		> 100 µM		> 100 µM
